Assay results published in paper PMC13379085 (PLOS Neglected Tropical Diseases, 2026).
Values after ≈ are worked out from the molar mass of the structure shown. Where two headings read alike, the source gives them in different places.

How the values were obtained:
LV82 L. donovani = assay: Giemsa staining of intracellular L. donovani in BMDMs from wildtype C57BL/6 or lysozyme knockout mice; assay type: cell-based, Leishmania donovani; conditions: 72-hour incubation
Excerpt: B6.129P2-Lyz2^tm1(cre)Ifo/J mice (stock #004781, herein termed ‘Lys K/O’) were obtained from Jackson Laboratory. This strain has a nuclear-localized Cre recombinase inserted into the first coding ATG of the lysozyme 2 gene (Lyz2) which eliminates endogenous Lyz2 gene function. Wildtype C57BL6/J mice (stock #000664) were obtained as a control.
Bone marrow derived macrophages (BMDMs) were isolated from both mice and cultured as described above in “Image-based Evaluation of Intracellular Anti-Leishmanial Activity”. BMDMs were seeded onto glass cover slips, infected with LV82 L. donovani at a multiplicity of infection of 1:10. Cells were washed to remove extracellular promastigotes and treated with compounds (197, amphotericin B) for a 72-hour incubation. BMDM cells were then washed with phosphate buffered saline, fixed with ice-cold methanol, and stained with Giemsa (5% v/v in water). The cover slips with stained cells are mounted onto glass slides and imaged on EVOS XL (100X, Thermo Fisher Scientific). Leishmania amastigotes per 100 macrophages were determined in a blinded manner.

THP-1 macrophages = assay: MTT viability of THP-1 macrophages (host cell cytotoxicity); assay type: cell-based; conditions: for CC50: MTT assay
Method: Human monocytes, THP-1 (ATCC, TIB002) were used as host cells for Leishmania infection and to assess drug cytotoxicity. The cells were cultured at 37C, 5% CO2 in RPMI medium (ATCC) supplemented with 10% FBS, 1% Penicillin/Streptomycin and 0.05 mM of β-mercaptoethanol. Cells were used in experiments up to passage 10.
Effect of the compounds on THP-1 cell viability measured using thiazolyl blue tetrazolium bromide which measures cell metabolic activity (MTT). […] Macrophages were then treated with compounds resuspended in RPMI media (1–50 µM) for 24 hours. Media was replaced with thiazolyl blue tetrazolium bromide solubilized in RPMI media (0.5 mg/mL) and incubated at 37°C for 2 hours. The reduced formazan crystals were solubilized with isopropyl alcohol and the absorbance of the resulting solution was measured at 560 nm with a background subtraction at 670 nm. […] This process was repeated with a 72-hr incubation and extended concentration range (1–300 µM) for select compounds.

[1] = system: Extracellular L. donovani promastigotes; assay: Resazurin viability assay of extracellular L. donovani promastigotes; assay type: cell-based, Leishmania donovani; conditions: for Extracellular L. donovani promastigotes MIC50: 72-hour incubation
Method: (§1) The effect of compounds on extracellular promastigotes was evaluated using a resazurin-based assay as described previously. In short, late log phase Leishmania promastigotes were seeded in a 96 well plate at 1 x 10^5 parasites per well and treated with drugs (0.5 – 200 µM) for 72 hours at 25°C. Ten microliters of Resazurin (0.02% w/v) were added to the treated parasites to achieve a final concentration of 0.002% w/v and incubated for 24 hours. Viability of the promastigotes was assessed by fluorescence (excitation 544 nm, emission 590 nm, SpectraMax M2, Molecular Devices).

[2] = system: Intracellular L. donovani amastigotes; assay: Luminescence-based assay of intracellular L. donovani burden in THP-1 macrophages; assay type: cell-based, Leishmania donovani; conditions: for IC50: THP1 macrophages, luminescence assay, 72 hours of treatment, read-out: Intracellular L. donovani amastigotes Lum IC50; for Selectivity 24h LC50/ Lum IC50: host-directed effect vs cytotoxicity in THP-1
Method: Luminescent strains, L. donovani LV82 expressing firefly luciferase (a kind gift from Dr. Abhay Satoskar, Ohio State University) and L. mexicana (NR-51210, ATCC) expressing renilla luciferase were used to evaluate the effect of the compounds in intracellular and extracellular conditions. Wild-type L. donovani LV82 (ATCC) were used for Giemsa staining based experiments. All parasites were cultured at 25°C and 5% CO2 in M199 media (Corning) supplemented with 10% FBS, 1% Penicillin/Streptomycin, and Hemin (0.01 mg/mL), and used in experiments up to passage 15.
THP-1 cells were seeded in a 96 well plate (25,000 cells/well) overnight then differentiated with 150 nM phorbol 12-myristate 13-acetate (PMA) over 72 hours (S1 Fig). […] Briefly, promastigotes of a known cell density were resuspended in RPMI media (with 10% FBS, 1% P/S and 0.05 mM β-mercaptoethanol) and incubated with adhered THP-1 cells over 18 hours. After infection, cells were washed three times with fresh media to remove extracellular promastigotes.
Infected macrophages were then treated with compounds solubilized in DMSO ranging from 0.1-10 µM in concentrations. After 72 hours of treatment, the viability of the amastigotes within macrophages was determined using Promega firefly luminescence assay (Cat E1500) or Pierce Renilla luciferase assay (Cat 16166) for L. donovani and L. mexicana strains, respectively. Briefly, media was removed, and cells were lysed with the assay lysis buffer. The luciferase substrate was then incubated with the lysed cells for 10 min at room temperature and luminescence of live Leishmania was measured in a white opaque 96 well plate using a Biotek plate reader.

[3] = system: Intracellular L. donovani amastigotes; assay: Image-based Giemsa staining of intracellular L. donovani in bone marrow derived macrophages; assay type: cell-based, Leishmania donovani; conditions: 72-hour incubation
Method: (§2) Bone marrow derived macrophages (BMDMs) were isolated from BALB/c mice and cultured as previously described. […] Completely differentiated BMDMs are obtained after 7 days of culture with media change every 2 days. Harvested cells are seeded onto 10 mm glass cover slips at 5 x 10^5 cells/ well of a 24 well plate in DMEM media (without LCM) and allowed to adhere overnight. BMDM cells are then infected overnight with LV82 L. donovani or L. mexicana (NR-51210) at a multiplicity of infection of 10. After infection, cells were washed three times with fresh media to remove extracellular promastigotes and treated with compounds for a 72-hour incubation. BMDM cells were then washed with phosphate buffered saline, fixed with ice-cold methanol, and stained with Giemsa (5% v/v in water). The cover slips with stained cells are mounted onto glass slides and imaged on EVOS XL (100X, Thermo Fisher Scientific). Leishmania amastigotes per 100 macrophages were determined in a blinded manner.

[4] = system: Extracellular L. mexicana promastigotes; assay: Resazurin viability assay of extracellular L. mexicana promastigotes; assay type: cell-based, Leishmania mexicana; conditions: Leishmania mexicana, 72-hour incubation
Method: as §1

[5] = system: Intracellular L. mexicana amastigotes; assay: microbe, parasite or virus in culture; assay type: cell-based, Leishmania mexicana; conditions: Leishmania mexicana, Macrophage, 72 h, bone marrow derived macrophages, Giemsa staining, 72-hour incubation
Method: as §2

L. donovani = conditions: cited from earlier work
[6] = 72-hour incubation, read-out: 72 hr viability of THP-1 macrophages LC50
[7] = read-out: 24 hr viability of THP-1 macrophages 24h LC50, 24-hour incubation

Compound | CC50 (THP-1 macrophages; [6]) [µM] | CC50 (THP-1 macrophages; [7]) [µM] | Extracellular L. donovani promastigotes MIC50 [1] [µM] | IC50 [2] [µM] | IC50 [3] [µM] | other results
C[C@@H]1[C@H](O)[C@@H](C)/C=C/C=C/C=C/C=C/C=C/C=C/C=C/[C@H](O[C@@H]2O[C@H](C)[C@@H](O)[C@H](N)[C@@H]2O)C[C@@H]2O[C@](O)(C[C@@H](O)C[C@@H](O)[C@H](O)CC[C@@H](O)C[C@@H](O)CC(=O)O[C@H]1C)C[C@H](O)[C@H]2C(=O)O [Amphotericin B, reference compound] | – | – | – | – | – | anti-leishmanial activity in WT and Lys K/O BMDMs (LV82 L. donovani): retained its anti-leishmanial activity in both WT and Lys K/O BMDMs
Nc1ccc(CNC2CCN(c3ccc(-n4nc(C(F)(F)F)cc4-c4ccc(-c5ccc(C(F)(F)F)cc5)cc4)cc3)C2)cc1 (stereo not drawn) [Compound 23] | 6.9 | 5.8 | 4.0 | 0.4 | 0.9 | –
NCC(=O)Nc1ccc(-n2nc(C(F)(F)F)cc2-c2ccc3c(ccc4ccccc43)c2)cc1 [AR-12, reference compound] | – | – | – | – | – | MIC50 [4]: 15.1 µM (≈ 6.95 µg/mL); IC50 [5]: 1.5 µM; direct effect on the promastigote (L. donovani): no direct effect; parasite burden of L. donovani in infected macrophages (L. donovani; in vitro and in vivo): decrease the parasite burden
N[C@H]1CCN(c2ccc(-n3nc(C(F)(F)F)cc3-c3ccc(-c4ccc(C(F)(F)F)cc4)cc3)cc2)C1 [Compound 130] | 6.4 | 4.2 | 2.1 | 0.2 | 1.6 | –
N#Cc1cccc(CN2CCC(Nc3ccc(-n4nc(C(F)(F)F)cc4-c4ccc(-c5ccc(C(F)(F)F)cc5)cc4)cc3)C2)c1 (stereo not drawn) [Compound 53] | – | – | – | – | – | reduction in macrophage viability (THP-1 macrophages; 72 hr incubation up to 300µM): Neither compound had any reduction; direct effects on extracellular promastigote viability ([1]; for 53 strain not specified): no direct effects; MIC50 [4]: > 200 µM; Selectivity 24h LC50/ Lum IC50 [2]: >112.6
Oc1ccccc1CN1CCC(Nc2ccc(-n3nc(C(F)(F)F)cc3-c3ccc(-c4ccc(C(F)(F)F)cc4)cc3)cc2)C1 (stereo not drawn) [Compound 91] | 53.4 | > 50 | 56.3 | 1.4 | 2.4 | –
NCC(=O)Nc1ccc(-n2ccnc2-c2ccc(-c3ccc(C(F)(F)F)cc3)cc2)cc1 [Compound 158] | 16.5 | 16 | 4.6 | 0.2 | 0.6 | intracellular activity (primary screen) ([2]; imidazole series): retaining potent intracellular activity
O=C(Nc1ccc(-n2cc(C(F)(F)F)nc2-c2ccc(-c3ccccc3)cc2)cc1)C1CCN(Cc2ccccc2)C1 (stereo not drawn) [Compound 86] | 8.2 | 21.9 | 3.2 | 1.4 | 0.6 | –
CC(C)(C)C#Cc1ccc(-c2cc(C(F)(F)F)nn2-c2ccc(N3CCNCC3)cc2)cc1 [Compound 44] | 14.5 | 7.4 | 1.9 | 0.9 | 1 | –
N[C@@H]1CCN(c2ccc(-n3nc(C(F)(F)F)cc3-c3ccc(-c4ccc(C(F)(F)F)cc4)cc3)cc2)C1 [Compound 129] | 6.2 | 6.3 | 1.7 | 0.1 | 0.4 | –
NCC(=O)Nc1ccc(-n2cc(C(F)(F)F)nc2-c2ccc(-c3ccccc3)cc2)cc1 [Compound 50] | 42.7 | 23.5 | 14.6 | 1.5 | 9.1 | –
NC1CCN(c2ccc(-n3nncc3-c3ccc(C(F)(F)F)cc3)cc2)C1 (stereo not drawn) [Compound 134] | – | – | – | – | – | MIC50 [4]: 16.5 µM (≈ 6.16 µg/mL); IC50 [5]: 0.8 µM; Selectivity 24h LC50/ Lum IC50 [2]: 42.1
N#Cc1ccc(CNCC(=O)Nc2ccc(-n3nc(C(F)(F)F)cc3C3CCCCC3)cc2)cc1 [Compound 354] | – | – | – | – | – | MIC50 [4]: 30.7 µM (≈ 14.8 µg/mL); IC50 [5]: 3.5 µM; Selectivity 24h LC50/ Lum IC50 [2]: 44.9
FC(F)(F)c1ccc(-c2ccc(-c3cc(C(F)(F)F)nn3-c3ccc(NC4CCNC4)cc3)cc2)cc1 (racemic) [Compound 25] | 6.3 | 28.9 | 2.1 | 0.7 | 2.5 | –
Oc1ccc(CNC2CCN(c3ccc(-n4nc(C(F)(F)F)cc4C4CCCCC4)cc3)CC2)cc1 [Compound 319] | 7.2 | 6.4 | 0.8 | 0.8 | 3.4 | –
